According to PubChem BioAssay AID328 (DTP/NCI, 2004):
Where “and” joins values, the source holds several entries; their conditions need not be identical. Equal entries are not always repeated. Inconclusive results and toxic doses are left out. Rule for the calls: active = survival T/C of 150% or more; inactive = T/C below 125% in these data.

Test system: BDF1 mice, P388 leukemia ip, median survival T/C
Assay: NCI In Vivo Anticancer Drug Screen. Data for tumor model P388 Leukemia (intraperitoneal) in B6D2F1 (BDF1) mice
Conditions: endpoint: median survival time, higher = longer survival
Summary of the method: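 Read-out is survival of treated animals expressed relative to the vehicle group, as a T/C ratio.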

[1] = dose: 100.0 mg/kg/injection, schedule: Q01DX009 (ip), vehicle: saline with Tween-80
[2] = dose: 200.0 mg/kg/injection, schedule: Q01DX009 (ip), vehicle: saline with Tween-80
[3] = dose: 400.0 mg/kg/injection, schedule: Q01DX009 (ip), vehicle: saline with Tween-80
[4] = dose: 6.25 mg/kg/injection, schedule: Q01DX009 (ip), vehicle: saline
[5] = dose: 12.5 mg/kg/injection, schedule: Q01DX009 (ip), vehicle: saline

Measured: T/C

CC(=O)Oc1ccc[nH]c1=O
inactive: dose: 200.0 mg/kg/injection, schedule: Q01DX009 (ip), vehicle: saline 100 % of control | dose: 264.0 mg/kg/injection, schedule: Q01DX009 (ip), vehicle: saline with Tween-80 115 % of control | dose: 600.0 mg/kg/injection, schedule: Q01DX009 (ip), vehicle: saline with Tween-80 115 % of control | dose: 600.0 mg/kg/injection, schedule: Q01DX009 (ip), vehicle: saline 95 % of control
active: dose: 400.0 mg/kg/injection, schedule: Q01DX009 (ip), vehicle: saline 150 % of control

O=C(Nc1ccccc1C(=O)O)c1cc([N+](=O)[O-])cc([N+](=O)[O-])c1
inactive: dose: 50.0 mg/kg/injection, schedule: Q01DX009 (ip), vehicle: saline with Tween-80 117 % of control

CC(=O)OC1CC2(C)C3(CO3)C1OC1C=C(C)C(=O)C(O)C12CO (stereo not drawn)
inactive: dose: 5.0 mg/kg/injection, schedule: Q04DX002 (ip), vehicle: saline + alcohol 105 % of control | dose: 10.0 mg/kg/injection, schedule: Q04DX002 (ip), vehicle: saline + alcohol 100 % of control | dose: 20.0 mg/kg/injection, schedule: Q04DX002 (ip), vehicle: saline + alcohol 107 % of control | dose: 40.0 mg/kg/injection, schedule: Q04DX002 (ip), vehicle: saline + alcohol 109 % of control

COc1ccc(/C=N/n2c(C)cc(C)c(C#N)c2=O)c(OC)c1OC
inactive: [1] 100 % of control | dose: 100.0 mg/kg/injection, schedule: Q04DX003 (ip), vehicle: Klucel (hydroxypropylcellulose) (HPC) 115 % of control | [2] 86 % of control | dose: 200.0 mg/kg/injection, schedule: Q04DX003 (ip), vehicle: Klucel (hydroxypropylcellulose) (HPC) 100 % of control | [3] 113 % of control | dose: 400.0 mg/kg/injection, schedule: Q04DX003 (ip), vehicle: Klucel (hydroxypropylcellulose) (HPC) 100 % of control

CNC(=N)c1ccc(NC(=N)c2ccc(NC(=O)Nc3ccc(C(=N)Nc4ccc(C(=N)NC)cc4)cc3)cc2)cc1
inactive: dose: 12.5 mg/kg/injection, schedule: Q04DX003 (ip), vehicle: saline with Tween-80 122 % of control
active: dose: 6.0 mg/kg/injection, schedule: Q01DX009 (ip), vehicle: saline with Tween-80 216 % of control | dose: 8.0 mg/kg/injection, schedule: Q01DX009 (ip), vehicle: saline with Tween-80 172 % of control and 214 % of control | dose: 12.0 mg/kg/injection, schedule: Q01DX009 (ip), vehicle: saline with Tween-80 241 % of control and 204 % of control and 214 % of control

CCCCCCCCCCCC[N+](C)(C)CCCCCC[N+](C)(C)CCCCCCCCCCCC
inactive: dose: 3.13 mg/kg/injection, schedule: Q01DX009 (ip), vehicle: saline 113 % of control | [4] 116 % of control | [5] 94 % of control

CC(Cc1ccccc1)CC(C(=O)O)C(=O)O (stereo not drawn)
inactive: dose: 100.0 mg/kg/injection, schedule: Q04DX003 (ip), vehicle: saline with Tween-80 100 % of control | dose: 200.0 mg/kg/injection, schedule: Q04DX003 (ip), vehicle: saline with Tween-80 99 % of control

COc1cc(OC)c2c(O)c3c(c(-c4ccc5cc6c(c(O)c5c4O)C(=O)CC(C)(O)C6)c2c1)CC(C)OC3C (stereo not drawn)
inactive: dose: 0.19 mg/kg/injection, schedule: Q01DX009 (ip), vehicle: olive oil, sesame oil, peanut oil 106 % of control | dose: 0.39 mg/kg/injection, schedule: Q01DX009 (ip), vehicle: olive oil, sesame oil, peanut oil 91 % of control | dose: 0.78 mg/kg/injection, schedule: Q01DX009 (ip), vehicle: olive oil, sesame oil, peanut oil 106 % of control | dose: 1.56 mg/kg/injection, schedule: Q01DX009 (ip), vehicle: olive oil, sesame oil, peanut oil 102 % of control and 111 % of control

FC(F)(F)c1cc(NC2=NCCN=C(Nc3cc(C(F)(F)F)cc(C(F)(F)F)c3)SS2)cc(C(F)(F)F)c1
inactive: dose: 50.0 mg/kg/injection, schedule: Q01DX009 (ip), vehicle: Klucel (hydroxypropylcellulose) (HPC) 102 % of control | dose: 100.0 mg/kg/injection, schedule: Q01DX009 (ip), vehicle: Klucel (hydroxypropylcellulose) (HPC) 96 % of control | dose: 200.0 mg/kg/injection, schedule: Q01DX009 (ip), vehicle: Klucel (hydroxypropylcellulose) (HPC) 110 % of control

O=C(O)CCC(=O)Nc1ccccc1C(F)(F)F
inactive: [1] 100 % of control | [2] 109 % of control | [3] 90 % of control

CCN(C)c1nc(N(C)CC)c2nc(N(C)CC)nc(N(C)CC)c2n1
inactive: dose: 3.13 mg/kg/injection, schedule: Q01DX009 (ip), vehicle: Klucel (hydroxypropylcellulose) (HPC) 108 % of control | dose: 6.25 mg/kg/injection, schedule: Q01DX009 (ip), vehicle: Klucel (hydroxypropylcellulose) (HPC) 99 % of control | dose: 12.5 mg/kg/injection, schedule: Q01DX009 (ip), vehicle: Klucel (hydroxypropylcellulose) (HPC) 99 % of control | dose: 25.0 mg/kg/injection, schedule: Q01DX009 (ip), vehicle: Klucel (hydroxypropylcellulose) (HPC) 106 % of control

COC(/C=C\C(OC)OC)OC
inactive: dose: 4.1 mg/kg/injection, schedule: Q01DX009 (ip), vehicle: saline 109 % of control | dose: 4.17 mg/kg/injection, schedule: Q01DX009 (ip), vehicle: saline 100 % of control | [4] 100 % of control and 122 % of control | dose: 9.3 mg/kg/injection, schedule: Q01DX009 (ip), vehicle: saline 122 % of control | dose: 9.37 mg/kg/injection, schedule: Q01DX009 (ip), vehicle: saline 95 % of control | [5] 112 % of control | dose: 18.75 mg/kg/injection, schedule: Q04DX003 (ip), vehicle: saline 110 % of control | dose: 25.0 mg/kg/injection, schedule: Q01DX009 (ip), vehicle: saline 112 % of control | dose: 37.5 mg/kg/injection, schedule: Q04DX003 (ip), vehicle: saline 105 % of control
